Activity calls are given as the source filed them. No cut-off for these calls is given here.
Assays:
Assay type in all cases: functional, cell-based
Caco-2 [1] = test: Cytotoxicity against human Caco-2 cells at 100 uM after 72 hrs by MTT assay
Caco-2 [2] = test: Cytotoxicity against human Caco-2 cells at 0.1 to 100 uM after 72 hrs by MTT assay
HEp-2 = test: Cytotoxicity against human Hep2 cells at 0.1 to 100 uM after 72 hrs by MTT assay
HeLa = test: Cytotoxicity against human HeLa cells at 0.1 to 100 uM after 72 hrs by MTT assay
HT-29 = test: Cytotoxicity against human HT-29 cells at 0.1 to 100 uM after 72 hrs by MTT assay
MIA PaCa-2 = test: Cytotoxicity against human MIAPaCa2 cells at 0.1 to 100 uM after 72 hrs by MTT assay

Compound | Activity (Caco-2 [1]) | Activity (Caco-2 [2]) | Activity (HEp-2) | Activity (HeLa) | Activity (HT-29) | Activity (MIA PaCa-2)
Cc1nc2ccccc2c2ccc(NC(=O)NCCCCCCNC(=O)Nc3ccc4c(c3)c(C)nc3ccccc34)cc12 | inactive |  |  |  |  | 
Cc1nc2ccccc2c2ccc(NC(=O)NCCCCCCCCCNC(=O)Nc3ccc4c(c3)c(C)nc3ccccc34)cc12 | inactive | inactive | inactive | inactive | inactive | inactive
Cc1nc2ccccc2c2ccc(NC(=O)NCCNC(=O)Nc3ccc4c(c3)c(C)nc3ccccc34)cc12 | inactive |  |  |  |  | 
